The numbers were not newly measured in patent publication US20220287964A1, “TOPICAL FORMULATIONS COMPRISING CANNABIDIOL, METHOD OF PREP ARING THE COMPOSITION AND USE THEREOF” (CS Medica A/S, priority 2019, published 2022), which cites them from elsewhere.

The conditions of the data set: oral administration, given for comparison; cited from earlier work.

SMILES strings stand for the structures.

For the compound `C=C(C)[C@@H]1CCC(C)=C[C@H]1c1c(O)cc(CCCCC)cc1O` [cannabidiol, Cannabidiol], the “Absorbed through the gastrointestinal passage” value is “less than 10%”.
